Consider two compounds from PMC11988034, “Exposure–Response Relationships for Toceranib in Dogs with Solid Tumors: A Pilot Study” (Animals : an Open Access Journal from MDPI, 2025).

Read-outs that look alike come from different tables or passages of the source.

On the set-up of data set [1]: method as in PMID 24079884. The note with it: cited from earlier work.
Data set [2] in a line: Assessment of adverse events (VCOG-CTCAE v2.0) in dogs treated with TOC. The data set is classed as in vivo. Here is the method: AEs were evaluated before TOC treatment (at baseline) and 1, 2, and 4 weeks thereafter, followed by regular check-ups every 1–2 months. At each follow-up, a physical examination, blood pressure measurement, hematological and biochemical tests, and urinalysis were performed. AEs were graded according to the Veterinary Cooperative Oncology Group Common Terminology Criteria for AEs (v2.0). Concomitant medications, including famotidine, omeprazole, silymarin, ursodeoxycholic acid, mirtazapine, and tramadol, were allowed to prevent or treat drug-related AEs. TOC was permanently discontinued upon request of the owner or if unacceptable AEs occurred or disease progression was identified.

The nature of data set [3]: Plasma toceranib concentration (LC–MS/MS) in dogs with solid tumors treated with TOC. The note with it: for concentration at 48 h / Cmax: plasma; for concentration at 48 h: oral; for Cmax: po. The format is in vivo. Here is the method:
A prospective, randomized clinical trial was conducted on client-owned dogs diagnosed with malignant solid tumors between May 2022 and October 2023 at the Konkuk University Animal Cancer Center. TOC ([…], NJ, USA) was administered orally at a dose range of 2.4-2.9 mg/kg every other day with or without food. Medical data for the dogs were collected, including signalment (age, sex, and neuter status); physical examination, blood pressure, hematology, biochemistry, urinalysis, diagnostic imaging (radiography, ultrasound, and computed tomography), and histopathological findings (surgical margin and mitotic count); TOC dose and duration of TOC treatment; and AEs and clinical outcomes. Dogs were excluded from this study if distant metastases were confirmed at the time of diagnosis or if the TOC treatment duration was less than 1 month, which is insufficient for evaluating its effect. This clinical trial was approved by the Institutional Animal Care and Use Committee of the Konkuk University (approval no. KU 23046). Whole blood (1-2 mL) was obtained from the external jugular vein after initiation of postoperative TOC treatment. Blood samples were collected in ethylenediaminetetraacetic acid tubes 6 h (Cmax) and 48 h (Cmin) after administration; these time points were determined based on previous studies. Within 30 min of collection, the samples were centrifuged at 3000× g for 10 min at 4 °C. The plasma was separated, divided into cryovials, and stored at -80 °C until analysis. […] Plasma toceranib was quantitated via high-performance liquid chromatography with tandem mass spectrometry detection (LC-MS/MS). […] After thorough vortexing for 1 min, the mixture was centrifuged at 15,000× g for 10 min at 4 °C, and 2 μL of the supernatant was collected and injected into the LC-MS/MS system. The LC-MS/MS system comprised an ExionLCTM AD system (Sciex, Toronto, ON, Canada) coupled with a Triple QuadTM 5500+ mass system (Sciex). Data were acquired using Analyst 1.4.3. Chromatographic separation was performed using an XBridge C18 column (100 × 2.1 mm, 5 μm; Waters Corporation, Milford, MA, USA) maintained at 40 °C. An isocratic mobile phase comprising 0.1% formic acid in water and 0.1% formic acid in acetonitrile (30:70, v/v) was used at a flow rate 0.50 mL/min, with the total run time not exceeding 3 min. The autosampler was maintained at 15 °C. All measurements were conducted using a mass spectrometer operated in the positive electrospray ionization mode. The multiple reaction monitoring transitions were m/z 397.2 → 283.0 for toceranib and m/z 405.2 → 283.1 for the toceranib-d8 internal standard (IS). The other parameters were as follows: collision gas, curtain gas, ion source gas 1, and ion source gas 2 at 7, 35, 50, and 70 psi, respectively; dwell time, 200 ms; ion spray voltage and temperature, 4000 V and 600 °C, respectively; declustering potential, 80 V for toceranib and the IS; collision energy, 40 V for toceranib and the IS; entrance potential (EP), 12 V for toceranib and 8 V for IS; and collision exit potential, 16 V for toceranib and 18 V for the IS. Standard curves were generated using the peak area ratios of toceranib to the IS and 1/x^2 weighted linear regression. Toceranib concentrations were determined via interpolation across a range of 5-500 ng/mL. Continuous variables are expressed as the mean ± standard deviation. Interpatient variability is expressed as the coefficient of variation, calculated as standard deviation divided by the mean and expressed as a percentage. Normality was assessed using the Shapiro-Wilk test. Continuous variables were compared using Student's t-test or Mann-Whitney U test. Linear mixed models for repeated measures were used to compare plasma TOC concentrations over time. Data were analyzed using SPSS v26.0 (IBM Corp., Armonk, NY, USA). Differences were considered significant at p < 0.05.

The conditions of data set [4]: cited from earlier work.
The test system of the next data set is malignant solid tumors. Nature of the data set: Assessment of clinical outcome (tumor recurrence) in dogs with solid tumors on postoperative TOC. The data set is classed as in vivo. On the procedure: A prospective, randomized clinical trial was conducted on client-owned dogs diagnosed with malignant solid tumors between May 2022 and October 2023 at the Konkuk University Animal Cancer Center. TOC (Palladia®, Zoetis, Parsippany, NJ, USA) was administered orally at a dose range of 2.4–2.9 mg/kg every other day with or without food. Medical data for the dogs were collected, including signalment (age, sex, and neuter status); physical examination, blood pressure, hematology, biochemistry, urinalysis, diagnostic imaging (radiography, ultrasound, and computed tomography), and histopathological findings (surgical margin and mitotic count); TOC dose and duration of TOC treatment; and AEs and clinical outcomes. Dogs were excluded from this study if distant metastases were confirmed at the time of diagnosis or if the TOC treatment duration was less than 1 month, which is insufficient for evaluating its effect. This clinical trial was approved by the Institutional Animal Care and Use Committee of the Konkuk University (approval no. KU 23046).
Rechecks were performed every 1–2 months after the initiation of TOC treatment through physical examination, three-view thoracic radiography, and abdominal ultrasonography.

On the set-up of data set [5]: method as in PMID 12855656. The note with it: preclinical trials in rodent models; cited from earlier work.
The next data set concerns canine solid tumors. On the set-up: method as in PMID 12855656, PMID 22236194, PMID 34981886. The note with it: various types of canine solid tumors; cited from earlier work.
For data set [6] the following is noted: cited from earlier work. This is another data set of the same source.
On the set-up of data set [7]: method as in PMID 34512023, PMID 31782166. The note with it: patients with metastatic renal cell tumors; cited from earlier work.

Regarding `Cc1[nH]c(/C=C2\C(=O)Nc3ccc(F)cc32)c(C)c1C(=O)NCCN1CCCC1` [TOC, Toceranib phosphate], the “resulting Cmax” value in [1] (TOC administered within 2.4 to 2.9 mg/kg) is above 40 ng/mL. The “dogs in which Cmax was reached at 6 or 8 h post-administration” value in data set [1] is given as 69%. In [1], the “plasma concentration at 6 or 8 h as share of actual Cmax in the remaining dogs” value is listed as above 75%. The “dogs that experienced AEs” value in [2] (five of the nine dogs in which Cmax was measured) is on record as 55.6%; in [2] (five out of ten dogs, follow-up period) it was 50%; in data set [2] (two of the four dogs in which Cmin was measured), 50%. In addition, the “mean interpatient variability in dose-normalized Cmax (coefficient of variation)” value in [3] (dog, in vivo) amounted to 29%. Also, the “mean interpatient variability in dose-normalized Cmin (coefficient of variation)” value in data set [3] (dog, in vivo, 48 h) worked out at 61%. The concentration at 48 h in [3] (dog, dogs with AEs, read-out: mean Cmin) was 13.5 ± 12.1 ng/mL; in data set [3] (dog, dogs without AEs, read-out: mean Cmin), 14.9 ± 11.3 ng/mL; in data set [3] (dog, four dogs, mean ± SD, read-out: overall mean Cmin), 14.2 ± 9.57 ng/mL. Moreover, the highest concentration (Cmax) (in general, the highest concentration seen after dosing) in data set [3] (dog, dogs with AEs, read-out: mean Cmax at week 1) came out at 89.3 ± 26.3 ng/mL; in [3] (dog, dogs with AEs, read-out: mean Cmax on average), 86.2 ± 28.6 ng/mL; in data set [3] (dog, dogs with tumor recurrence, read-out: mean Cmax at week 1) it was 74.6 ± 49.9 ng/mL; in [3] (dog, dogs with tumor recurrence, read-out: mean Cmax on average) it was 82.7 ± 42.6 ng/mL; in [3] (dog, dogs without AEs, read-out: mean Cmax at week 1), 59.9 ± 20.2 ng/mL; in data set [3] (dog, dogs without AEs, read-out: mean Cmax on average), 64.1 ± 8.58 ng/mL. The Cmax in data set [3] (dog, dogs without tumor recurrence, read-out: mean Cmax at week 1) worked out at 77 ± 13.7 ng/mL; in [3] (dog, dogs without tumor recurrence, read-out: mean Cmax on average), 73.2 ± 12.3 ng/mL; in [3] (dog, individual dogs (case no. in c0), plasma 6 h after oral administration, week 12, read-out: Cmax Week 12) it was 47.4 ng/mL; in [3] (dog, nine dogs, average of weeks, mean ± SD, read-out: overall mean Cmax on average), 76.4 ± 22.5 ng/mL; in [3] (dog, nine dogs, mean ± SD, read-out: overall mean Cmax at week 1), 76.2 ± 27.2 ng/mL. Further, in data set [3] (dogs, oral dosing every other day), the “time to steady-state plasma concentration” value is reported as at most 1 week. Moreover, the results for the “biological activity (dogs responding)” value in [4] (11/16 dogs treated with 2.5 mg/kg TOC every other day) and in [4] (12/20 dogs treated with TOC at the MTD) were 69% and 60%, respectively. Besides, in [4] (every other day, dogs), the “maximum tolerated dose (MTD)” value is on record as 3.25 mg/kg. For the same compound, the “dogs that developed tumor recurrence” value in the data set with malignant solid tumors (three of the nine dogs with Cmax measured) is 33.3%. Moreover, the “dogs that developed local recurrence” value in the data set with malignant solid tumors (three out of ten dogs, follow-up period) is listed as 30%. Moreover, the “therapeutic range (plasma concentration)” value in [5] is 50 to 100 ng/mL. Moreover, the clinical benefit in the data set with canine solid tumors is given as 50–90%. Besides, in data set [6] (dogs with mast cell tumors receiving TOC at the MTD), the “Cmax level associated with clinical efficacy” value is given as “at least 40 ng/mL”. In addition, the elimination half-life result in data set [6] (in dogs) is reported as “approximately 17 h”. Besides, the “interpatient coefficient of variation for Cmax” value in [6] (previous PK study) is reported as 35–40%. Also, the “interpatient coefficient of variation for Cmin” value in [6] (previous PK study) is 30–61%.
Turning to `CCN(CC)CCNC(=O)c1c(C)[nH]c(/C=C2\C(=O)Nc3ccc(F)cc32)c1C` [sunitinib], in [7], the “interpatient PK variability” value is 34–60%.
